Source: US10781211B2, “Spirocycle compounds and methods of making and using same” (Lundbeck La Jolla Research Center, Inc., priority 2016, dated 2020)

Experiments:
Assay type in all cases: in vivo
Details in all cases: 5 mg/kg oral gavage
ABHD6 = ABHD6 (Mus musculus (Mouse), UniProt Q8R2Y0); test: Mouse brain proteomes from inhibitor treated mice (oral gavage, sacrifice 4 h after administration, ABPP analysis), ABHD6
In short: (§1)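 Mice (wild-type C57Bl/6J) receive inhibitor by oral gavage, e.g. in PEG400/Ethanol/PBS (7/2/1). Each animal is killed 4 h later. Brain proteomes are prepared and analyzed by ABPP, giving % inhibition at 5 mg/kg.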

FAAH = FAAH (Mus musculus (Mouse), UniProt O08914); test: Mouse brain proteomes from inhibitor treated mice (oral gavage, sacrifice 4 h after administration, ABPP analysis), FAAH
In short: as §1

MAGL = MAGL (Mus musculus (Mouse), UniProt O35678); test: Mouse brain proteomes from inhibitor treated mice (oral gavage, sacrifice 4 h after administration, ABPP analysis)
Procedure: Preparation of Mouse Brain Proteomes from Inhibitor Treated Mice.
Inhibitors were administered to wild-type C57Bl/6J by oral gavage in a vehicle, e.g. PEG400/Ethanol/PBS (7/2/1). Each animal was sacrificed 4 h following administration and brain proteomes were prepared and analyzed according to previously established methods (See Niphakis, M. J., et al. (2011) ACS Chem. Neurosci. and Long, J. Z., et al. Nat. Chem. Biol. 5:37-44). Data from this assay is shown in Table 2 (% inhibition at 5 mg/kg).

FAAH, sequence (O08914 whole entry): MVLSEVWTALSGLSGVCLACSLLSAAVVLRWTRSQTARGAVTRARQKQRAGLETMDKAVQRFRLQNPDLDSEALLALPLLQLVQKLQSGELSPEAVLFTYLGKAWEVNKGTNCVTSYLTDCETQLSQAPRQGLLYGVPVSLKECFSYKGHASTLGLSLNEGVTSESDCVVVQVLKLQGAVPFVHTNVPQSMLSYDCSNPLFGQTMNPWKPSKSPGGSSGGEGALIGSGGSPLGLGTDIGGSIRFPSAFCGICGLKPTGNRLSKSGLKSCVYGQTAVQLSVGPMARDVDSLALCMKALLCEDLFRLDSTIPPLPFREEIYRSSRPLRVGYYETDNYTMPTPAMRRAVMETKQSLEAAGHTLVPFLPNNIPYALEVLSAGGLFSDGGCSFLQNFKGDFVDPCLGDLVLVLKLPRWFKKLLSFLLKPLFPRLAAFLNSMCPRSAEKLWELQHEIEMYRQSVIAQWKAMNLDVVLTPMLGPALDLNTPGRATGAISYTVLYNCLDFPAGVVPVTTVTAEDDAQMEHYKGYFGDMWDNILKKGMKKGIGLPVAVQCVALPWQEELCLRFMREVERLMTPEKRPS
ABHD6, sequence (Q8R2Y0 whole entry): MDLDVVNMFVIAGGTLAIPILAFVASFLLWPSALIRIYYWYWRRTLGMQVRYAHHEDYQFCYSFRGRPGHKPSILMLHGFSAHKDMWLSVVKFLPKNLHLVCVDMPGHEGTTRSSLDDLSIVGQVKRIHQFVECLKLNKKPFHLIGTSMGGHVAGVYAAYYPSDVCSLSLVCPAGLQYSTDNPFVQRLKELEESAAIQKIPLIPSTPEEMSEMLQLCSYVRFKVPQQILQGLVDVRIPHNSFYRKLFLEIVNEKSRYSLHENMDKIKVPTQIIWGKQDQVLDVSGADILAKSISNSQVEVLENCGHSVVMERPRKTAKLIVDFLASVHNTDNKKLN
MAGL, sequence (O35678 whole entry): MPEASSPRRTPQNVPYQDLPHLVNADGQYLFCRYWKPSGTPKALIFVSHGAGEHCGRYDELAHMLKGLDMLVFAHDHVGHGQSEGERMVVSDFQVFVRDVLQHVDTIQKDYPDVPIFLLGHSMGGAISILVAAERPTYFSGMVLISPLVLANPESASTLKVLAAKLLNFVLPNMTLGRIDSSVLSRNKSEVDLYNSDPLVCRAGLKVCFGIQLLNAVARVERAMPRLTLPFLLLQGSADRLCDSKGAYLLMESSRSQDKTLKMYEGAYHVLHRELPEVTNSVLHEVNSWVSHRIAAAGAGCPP

## O=C(OC(C(F)(F)F)C(F)(F)F)N1CCC2(CCCN2Cc2cc(Cl)cc(N3CCCC3)c2)CC1 [Example 34, 1,1,1,3,3,3-Hexafluoropropan-2-yl 1-(3-chloro-5-(pyrrolidin-1-yl)benzyl)-1,8-diazaspiro[4.5]decane-8-carboxylate]
ABHD6
  ABHD6 % Inh 5 mg/kg (mouse): # (# is < 25%)
FAAH
  FAAH % Inh 5 mg/kg (mouse): # (# is < 25%)
MAGL
  MAGL % Inh 5 mg/kg (mouse): ### (### is ≥ 75%)

## O=C(OC(C(F)(F)F)C(F)(F)F)N1CCC2(CCCN2Cc2ccc(C(F)(F)F)cc2N2CCOCC2)CC1 [Example 67, 1,1,1,3,3,3-Hexafluoropropan-2-yl 1-(2-morpholino-4-(trifluoromethyl)benzyl)-1,8-diazaspiro[4.5]decane-8-carboxylate]
ABHD6
  ABHD6 % Inh 5 mg/kg (mouse): # (# is < 25%)
FAAH
  FAAH % Inh 5 mg/kg (mouse): # (# is < 25%)
MAGL
  MAGL % Inh 5 mg/kg (mouse): ### (### is ≥ 75%)

## O=C(OC(C(F)(F)F)C(F)(F)F)N1CCC2(CCCN2Cc2ccc(N3CCCC3)c(Cl)c2)CC1 [Example 128, 1,1,1,3,3,3-Hexafluoropropan-2-yl 1-(3-chloro-4-(pyrrolidin-1-yl)benzyl)-1,8-diazaspiro[4.5]decane-8-carboxylate]
ABHD6
  ABHD6 % Inh 5 mg/kg (mouse): # (# is < 25%)
FAAH
  FAAH % Inh 5 mg/kg (mouse): # (# is < 25%)
MAGL
  MAGL % Inh 5 mg/kg (mouse): ### (### is ≥ 75%)

## O=C(OC(C(F)(F)F)C(F)(F)F)N1CCC2(CCCN2Cc2ccc(Cl)c(C(F)(F)F)c2)CC1 [Example 184, 1,1,1,3,3,3-Hexafluoropropan-2-yl 1-(4-chloro-3-(trifluoromethyl)benzyl)-1,8-diazaspiro[4.5]decane-8-carboxylate]
ABHD6
  ABHD6 % Inh 5 mg/kg (mouse): # (# is < 25%)
FAAH
  FAAH % Inh 5 mg/kg (mouse): # (# is < 25%)
MAGL
  MAGL % Inh 5 mg/kg (mouse): ### (### is ≥ 75%)

## O=C(OC(C(F)(F)F)C(F)(F)F)N1CCC2(CCCN2Cc2ccc(Cl)c(N3CCCC3)c2)CC1 [Example 132, 1,1,1,3,3,3-Hexafluoropropan-2-yl 1-(4-chloro-3-(pyrrolidin-1-yl)benzyl)-1,8-diazaspiro[4.5]decane-8-carboxylate]
ABHD6
  ABHD6 % Inh 5 mg/kg (mouse): # (# is < 25%)
FAAH
  FAAH % Inh 5 mg/kg (mouse): # (# is < 25%)
MAGL
  MAGL % Inh 5 mg/kg (mouse): ### (### is ≥ 75%)

## CS(=O)(=O)C1CCN(c2cc(C(F)(F)F)ccc2CN2CCCC23CCN(C(=O)OC(C(F)(F)F)C(F)(F)F)CC3)CC1 [Example 267]
ABHD6
  ABHD6 % Inh 5 mg/kg (mouse): # (# is < 25%)
FAAH
  FAAH % Inh 5 mg/kg (mouse): # (# is < 25%)
MAGL
  MAGL % Inh 5 mg/kg (mouse): # (# is < 25%)

## O=C(OC(C(F)(F)F)C(F)(F)F)N1CCC2(CCCN2Cc2ccc(N3CCCC3)c(C(F)(F)F)c2)CC1 [Example 130, 1,1,1,3,3,3-Hexafluoropropan-2-yl 1-(4-(pyrrolidin-1-yl)-3-(trifluoromethyl)benzyl)-1,8-diazaspiro[4.5]decane-8-carboxylate]
ABHD6
  ABHD6 % Inh 5 mg/kg (mouse): # (# is < 25%)
FAAH
  FAAH % Inh 5 mg/kg (mouse): # (# is < 25%)
MAGL
  MAGL % Inh 5 mg/kg (mouse): ### (### is ≥ 75%)

## O=C(OC(C(F)(F)F)C(F)(F)F)N1CCC2(CCCN2Cc2cccc(Cl)c2)CC1 [Example 61, 1,1,1,3,3,3-Hexafluoropropan-2-yl 1-(3-chlorobenzyl)-1,8-diazaspiro[4.5]decane-8-carboxylate]
ABHD6
  ABHD6 % Inh 5 mg/kg (mouse): # (# is < 25%)
FAAH
  FAAH % Inh 5 mg/kg (mouse): ### (### is ≥ 75%)
MAGL
  MAGL % Inh 5 mg/kg (mouse): ### (### is ≥ 75%)

## O=C(O)C1CCN(Cc2cc(Cl)cc(CN3CCCC34CCN(C(=O)OC(C(F)(F)F)C(F)(F)F)CC4)c2)C1 (stereo not drawn) [Example 272]
ABHD6
  ABHD6 % Inh 5 mg/kg (mouse): # (# is < 25%)
FAAH
  FAAH % Inh 5 mg/kg (mouse): # (# is < 25%)
MAGL
  MAGL % Inh 5 mg/kg (mouse): ### (### is ≥ 75%)

## O=C(O)C1CCN(c2cc(S(F)(F)(F)(F)F)ccc2CN2CCCC23CCN(C(=O)OC(C(F)(F)F)C(F)(F)F)CC3)CC1 [Example 240]
ABHD6
  ABHD6 % Inh 5 mg/kg (mouse): # (# is < 25%)
FAAH
  FAAH % Inh 5 mg/kg (mouse): # (# is < 25%)
MAGL
  MAGL % Inh 5 mg/kg (mouse): ### (### is ≥ 75%)

## CS(=O)(=O)N1CCN(c2cc(Cl)ccc2CN2CCCC23CCN(C(=O)OC(C(F)(F)F)C(F)(F)F)CC3)CC1 [Example 100, 1,1,1,3,3,3-Hexafluoropropan-2-yl 1-(4-chloro-2-(4-(methylsulfonyl)piperazin-1-yl)benzyl)-1,8-diazaspiro[4.5]decane-8-carboxylate]
ABHD6
  ABHD6 % Inh 5 mg/kg (mouse): # (# is < 25%)
FAAH
  FAAH % Inh 5 mg/kg (mouse): # (# is < 25%)
MAGL
  MAGL % Inh 5 mg/kg (mouse): ### (### is ≥ 75%)

## O=C(O)C1CN(c2cc(C(F)(F)F)ccc2CN2CCCC23CCN(C(=O)OC(C(F)(F)F)C(F)(F)F)CC3)CCO1 (stereo not drawn) [Example 197, 4-(2-((8-(((1,1,1,3,3,3-Hexafluoropropan-2-yl)oxy)carbonyl)-1,8-diazaspiro[4.5]decan-1-yl)methyl)-5-(trifluoromethyl)phenyl)morpholine-2-carboxylic acid]
ABHD6
  ABHD6 % Inh 5 mg/kg (mouse): # (# is < 25%)
FAAH
  FAAH % Inh 5 mg/kg (mouse): # (# is < 25%)
MAGL
  MAGL % Inh 5 mg/kg (mouse): # (# is < 25%)

## CC1(C)CC2(CCN(C(=O)OC(C(F)(F)F)C(F)(F)F)CC2)CN1Cc1ccc(C(F)(F)F)cc1N1CCC2(CCOCC2)C1 [Example 52, 1,1,1,3,3,3-Hexafluoropropan-2-yl 2-(2-(8-oxa-2-azaspiro[4.5]decan-2-yl)-4-(trifluoromethyl)benzyl)-3,3-dimethyl-2,8-diazaspiro[4.5]decane-8-carboxylate]
ABHD6
  ABHD6 % Inh 5 mg/kg (mouse): # (# is < 25%)
FAAH
  FAAH % Inh 5 mg/kg (mouse): # (# is < 25%)
MAGL
  MAGL % Inh 5 mg/kg (mouse): # (# is < 25%)

## O=C(OC(C(F)(F)F)C(F)(F)F)N1CCC2(CCCN2Cc2cc(N3CCCC3)cc(C(F)(F)F)c2)CC1 [Example 36, 1,1,1,3,3,3-Hexafluoropropan-2-yl 1-(3-(pyrrolidin-1-yl)-5-(trifluoromethyl)benzyl)-1,8-diazaspiro[4.5]decane-8-carboxylate]
ABHD6
  ABHD6 % Inh 5 mg/kg (mouse): # (# is < 25%)
FAAH
  FAAH % Inh 5 mg/kg (mouse): # (# is < 25%)
MAGL
  MAGL % Inh 5 mg/kg (mouse): ### (### is ≥ 75%)

## Cc1c(CN2CCCC23CCN(C(=O)OC(C(F)(F)F)C(F)(F)F)CC3)cccc1N1CCCC1 [Example 85, 1,1,1,3,3,3-Hexafluoropropan-2-yl 1-(2-methyl-3-(pyrrolidin-1-yl)benzyl)-1,8-diazaspiro[4.5]decane-8-carboxylate]
ABHD6
  ABHD6 % Inh 5 mg/kg (mouse): # (# is < 25%)
FAAH
  FAAH % Inh 5 mg/kg (mouse): # (# is < 25%)
MAGL
  MAGL % Inh 5 mg/kg (mouse): ### (### is ≥ 75%)

## Cc1ccc(CN2CCCC23CCN(C(=O)OC(C(F)(F)F)C(F)(F)F)CC3)cc1Cl [Example 125, 1,1,1,3,3,3-Hexafluoropropan-2-yl 1-(3-chloro-4-methylbenzyl)-1,8-diazaspiro[4.5]decane-8-carboxylate]
ABHD6
  ABHD6 % Inh 5 mg/kg (mouse): # (# is < 25%)
FAAH
  FAAH % Inh 5 mg/kg (mouse): # (# is < 25%)
MAGL
  MAGL % Inh 5 mg/kg (mouse): ### (### is ≥ 75%)

## O=C(OC(C(F)(F)F)C(F)(F)F)N1CCC2(CCCN2Cc2cccc(OCCF)c2)CC1 [Example 27, 1,1,1,3,3,3-Hexafluoropropan-2-yl 1-(3-(2-fluoroethoxy)benzyl)-1,8-diazaspiro[4.5]decane-8-carboxylate]
ABHD6
  ABHD6 % Inh 5 mg/kg (mouse): # (# is < 25%)
FAAH
  FAAH % Inh 5 mg/kg (mouse): # (# is < 25%)
MAGL
  MAGL % Inh 5 mg/kg (mouse): ### (### is ≥ 75%)

## O=C(OC(C(F)(F)F)C(F)(F)F)N1CCC2(CCCN2Cc2ccc(Cl)c(OCCF)c2)CC1 [Example 28, 1,1,1,3,3,3-Hexafluoropropan-2-yl 1-(4-chloro-3-(2-fluoroethoxy)benzyl)-1,8-diazaspiro[4.5]decane-8-carboxylate]
ABHD6
  ABHD6 % Inh 5 mg/kg (mouse): # (# is < 25%)
FAAH
  FAAH % Inh 5 mg/kg (mouse): # (# is < 25%)
MAGL
  MAGL % Inh 5 mg/kg (mouse): ### (### is ≥ 75%)

## CS(=O)(=O)NC1CCN(c2cc(C(F)(F)F)ccc2CN2CCCC23CCN(C(=O)OC(C(F)(F)F)C(F)(F)F)CC3)CC1 [Example 94, 1,1,1,3,3,3-Hexafluoropropan-2-yl 1-(2-(4-(methylsulfonamido)piperidin-1-yl)-4-(trifluoromethyl)benzyl)-1,8-diazaspiro[4.5]decane-8-carboxylate]
ABHD6
  ABHD6 % Inh 5 mg/kg (mouse): # (# is < 25%)
FAAH
  FAAH % Inh 5 mg/kg (mouse): # (# is < 25%)
MAGL
  MAGL % Inh 5 mg/kg (mouse): # (# is < 25%)

## CC1(C(=O)O)CN(c2cc(CN3CCCC34CCN(C(=O)OC(C(F)(F)F)C(F)(F)F)CC4)cc(C(F)(F)F)c2)CCO1 (stereo not drawn) [Example 195, 4-(3-((8-(((1,1,1,3,3,3-hexafluoropropan-2-yl)oxy)carbonyl)-1,8-diazaspiro[4.5]decan-1-yl)methyl)-5-(trifluoromethyl)phenyl)-2-methylmorpholine-2-carboxylic acid]
ABHD6
  ABHD6 % Inh 5 mg/kg (mouse): # (# is < 25%)
FAAH
  FAAH % Inh 5 mg/kg (mouse): # (# is < 25%)
MAGL
  MAGL % Inh 5 mg/kg (mouse): # (# is < 25%)

## O=C(OC(C(F)(F)F)C(F)(F)F)N1CCC2(CCCN2Cc2ccc(C(F)(F)F)c(N3CCOCC3)c2)CC1 [Example 133, 1,1,1,3,3,3-Hexafluoropropan-2-yl 1-(3-morpholino-4-(trifluoromethyl)benzyl)-1,8-diazaspiro[4.5]decane-8-carboxylate]
ABHD6
  ABHD6 % Inh 5 mg/kg (mouse): # (# is < 25%)
FAAH
  FAAH % Inh 5 mg/kg (mouse): # (# is < 25%)
MAGL
  MAGL % Inh 5 mg/kg (mouse): ### (### is ≥ 75%)

## CN(C)C(=O)C1CCN(c2cc(C(F)(F)F)ccc2CN2CCCC23CCN(C(=O)OC(C(F)(F)F)C(F)(F)F)CC3)CC1 [Example 16, 1,1,1,3,3,3-Hexafluoropropan-2-yl 1-(2-(4-(dimethylcarbamoyl)piperidin-1-yl)-4-(trifluoromethyl)benzyl)-1,8-diazaspiro[4.5]decane-8-carboxylate]
ABHD6
  ABHD6 % Inh 5 mg/kg (mouse): # (# is < 25%)
FAAH
  FAAH % Inh 5 mg/kg (mouse): # (# is < 25%)
MAGL
  MAGL % Inh 5 mg/kg (mouse): # (# is < 25%)
